{
  "source": "ChEMBL document CHEMBL3390834",
  "about": "“Development of second generation epigenetic agents” (Medchemcomm, 2012)",
  "molecular_target": "Histone deacetylase 2 (Homo sapiens, UniProt Q92769)",
  "sequence (Q92769 whole entry)": "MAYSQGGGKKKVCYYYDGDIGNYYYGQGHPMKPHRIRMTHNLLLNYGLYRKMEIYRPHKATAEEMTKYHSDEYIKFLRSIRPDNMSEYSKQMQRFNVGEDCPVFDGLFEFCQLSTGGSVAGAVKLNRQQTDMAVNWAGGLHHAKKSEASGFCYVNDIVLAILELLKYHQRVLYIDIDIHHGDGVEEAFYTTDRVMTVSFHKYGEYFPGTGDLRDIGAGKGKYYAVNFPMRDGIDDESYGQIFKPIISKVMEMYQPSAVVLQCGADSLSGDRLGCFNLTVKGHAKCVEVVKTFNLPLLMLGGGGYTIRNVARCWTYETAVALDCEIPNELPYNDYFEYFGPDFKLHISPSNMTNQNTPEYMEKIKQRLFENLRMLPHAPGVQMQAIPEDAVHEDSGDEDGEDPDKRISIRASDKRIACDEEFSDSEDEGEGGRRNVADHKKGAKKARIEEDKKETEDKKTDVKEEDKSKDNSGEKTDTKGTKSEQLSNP",
  "test": "Inhibition of recombinant human HDAC-2 expressed in baculovirus infected insect Sf9 cells using Fluor de Lys as substrate preincubated for 2 hrs followed by substrate addition measured after 10 mins by fluorescence assay",
  "data": [
    {"smiles": "CCCCc1nc2cc(/C=C/C(=O)NO)ccc2n1CCN(CC)CC", "note": "[PRACINOSTAT]", "values": [
      {"measurement": "Ki", "value": 16, "unit": "nM"}
    ]}
  ]
}
